Data on two molecules can be found in patent US5137811A, “Method for diagnosing periodontal diseases with a substrate specific for aminopeptidase activity of periodontopathic bacteria” (Sunstar Kabushiki Kaisha, priority 1986, dated 1992).

Assay [1] has as its system Actinomyces israelli. Nature of the assay: Hydrolytic activity of cell suspension, substrates alone or in combination (Experiment 3). It counts as cell-based. Particulars: two strains, Table 3. The protocol: (§1) The strains of Treponema were anaerobically cultivated using TYGVS media at 37° C. for 7 days, while other bacterial strains were cultivated using brain heart infusion broth at 37° C. for 48 to 72 hours. Each culture was diluted to obtain a bacterial cell suspension, the absorption at 660 nm of which was 1.0.
(§2) Substrate compounds for aminopeptidase enzyme having various color developing groups derived from β-naphthylamine were dissolved in 0.1M Tris-HCl buffer (pH 7.0) at the concentration of 0.2 mM to obtain substrate solutions.
(§3) To the substrate solution (1.5 ml) was added the above cell suspension (0.3 ml) and reacted at 37° C. for 60 minutes. After completion of the reaction, a coloring reagent [prepared by dissolving diazonium salt of Garnet GBC in 1M acetate buffer (containing 10% Tween 20, pH: 4.2) at the concentration of 0.5 mg/ml] was added and, after 15 minutes, the absorption at 525 nm was determined with a spectrophotometer.
(§4) On the basis of the average amount of released β-naphthylamine in each strain, the hydrolytic activity was expressed as follows: […]
(§5) According to the same manner as described in Experiment 1, periodontopathic bacteria specific aminopeptidase activity was tested by using four strains of Treponema denticola, five strains of B. gingivalis, four strains of Actinobacillus actinomycetemcomitans, two strains of Actinomyces israelli and three strains of Fusobacterium nucleatum. Abbreviations in Table 3 are the same as those in Tables 1 and 2. Hydrolytic activity "+++" means "40≤release amount<80 nmol/ml" and "++++" means "release amount≥80 nmol/ml".

Assay [2] relates to Treponema denticola. Described as above. Particulars: four strains, Table 3. It counts as cell-based. On the procedure: as §1, §2, §3, §4, §5
Assay [3] relates to B. gingivalis. The assay is described as above. It counts as cell-based. Conditions: five strains, Table 3. The protocol:
as §1, §2, §3, §4, §5

In assay [4] the test system is Fusobacterium nucleatum. The assay is described as above. It counts as cell-based. Particulars: three strains, Table 3. The protocol:
as §1, §2, §3, §4, §5

In assay [5] the test system is Actinobacillus actinomycetemcomitans. Described as above. Type of assay: cell-based. Conditions: four strains, Table 3. On the procedure:
as §1, §2, §3, §4, §5

In assay [6] the test system is Treponema denticola. The assay is described as follows: Hydrolytic activity of oral anaerobe cell suspension on aminopeptidase substrates (Experiment 1). Type of assay: cell-based. Particulars: four strains, substrate 0.2 mM, pH 7.0, 37° C., 60 minutes, Table 1. Put shortly:
(§6)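 Treponema grown anaerobically in TYGVS (37 °C, 7 days) and other strains in brain heart infusion (37 °C, 48–72 h), then diluted to A660 1.0. Cells reacted 60 min at 37 °C with β-naphthylamine-derived substrates (0.2 mM solution, 0.1 M Tris-HCl pH 7.0). Garnet GBC coupling, A525 after 15 min; activity graded from mean released β-naphthylamine per strain.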

The subject of assay [7] is Fusobacterium nucleatum. The description is as above. It counts as cell-based. Conditions: three strains, substrate 0.2 mM, pH 7.0, 37° C., 60 minutes, Table 1. In a few lines: as §6
The test system of a further assay is Capnocytophaga sp. The assay is described as above. It counts as cell-based. Particulars: four strains, substrate 0.2 mM, pH 7.0, 37° C., 60 minutes, Table 1. In a few lines:
as §6

The next assay deals with Bacteroides gingivalis. Described as above. Type of assay: cell-based. Conditions: five strains, substrate 0.2 mM, pH 7.0, 37° C., 60 minutes, Table 1. In a few lines: as §6
The subject of assay [8] is Actinobacillus actinomycetemcomitans. The assay is described as above. Type of assay: cell-based. Conditions: four strains, substrate 0.2 mM, pH 7.0, 37° C., 60 minutes, Table 1. Put shortly:
as §6

Assay [9] relates to Actinomyces israelli. The assay is described as follows: Hydrolytic activity of cell suspension on aminopeptidase substrates (Experiment 2). Conditions: two strains, Table 2. It counts as cell-based. In a few lines:
(§7)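 Cell suspensions (A660 = 1.0; Treponema grown 7 days in TYGVS, others 48–72 h in BHI, 37 °C) were incubated with 0.2 mM β-naphthylamide substrates in 0.1 M Tris-HCl pH 7.0 for 60 min at 37 °C. Released β-naphthylamine detected with Garnet GBC at 525 nm and scored from strain averages.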

A further assay concerns B. melaninogenicus. Described as above. It counts as cell-based. Conditions: two strains, Table 2. Put shortly:
as §7

Assay [10] relates to Treponema denticola. The description is as above. It counts as cell-based. Conditions: four strains, Table 2. In a few lines:
as §7

Assay [11] has as its system B. gingivalis. The description is as above. It counts as cell-based. Conditions: five strains, Table 2. In a few lines: as §7
In another assay the test system is B. intermedius. Described as above. Type of assay: cell-based. Conditions: three strains, Table 2. In a few lines: as §7
For assay [12], the system named is Fusobacterium nucleatum. The assay is described as above. It counts as cell-based. Particulars: three strains, Table 2. Put shortly:
as §7

The next assay has as its system B. corporis. The assay is described as above. It counts as cell-based. Conditions: Table 2. In a few lines: as §7
Another assay deals with B. denticola. Described as above. Type of assay: cell-based. Conditions: Table 2. Put shortly:
as §7

Assay [13] concerns Actinobacillus actinomycetemcomitans. The description is as above. Particulars: four strains, Table 2. Type of assay: cell-based. In a few lines:
as §7

Assay [14] deals with periodontopathic bacteria specific aminopeptidase activity. The assay is described as follows: Hydrolytic activity of saliva supernatant (Experiment 8). It counts as biochemical. Particulars: 37° C. for 4 hours, Table 8. On the procedure: A saliva mixture was collected from a group consisting of ten healthy subjects and centrifuged to obtain a supernatant. Likewise, centrifuged supernatants were obtained from a group of ten subjects with adult periodontitis and a group of four localized juvenile periodontitis. The supernatant was used as a specimen and its hydrolytic activity was determined according to the same manner as described in Experiment 4 except that the reaction was carried out at 37° C. for 4 hours. As the substrates, there were used N-carbobenzoxy-valyl-glycyl-arginine-p-nitrophenol (CxVGR-pNP), N-carbobenzoxy-valyl-glycylarginine-4-methoxy-2-naphthylamide (CxVGR-4NA) and N-carbobenzoxy-valyl-glycyl-arginine-β-naphthylamide (CxVGR-βNA). Color was developed by using lN sodium hydroxide for CxVGR-pNP and Fast Blue BB for CxVGR-4NA and CxVGR-βNA.
According to the same manner as described in Experiment 7, hydrolytic activity was tested by using lysylproline-p-nitroanilide (KP-pNA), lysyl-proline-4-methoxy-2-naphthylamide (KP-4NA) and lysyl-proline-β-naphthylamide (KP-βNA)as the substrates. Color was developed by using lN sodium hydroxide for KP-pNA and Fast Blue BB for KP-4-NA and KP-βNA.

Assay [15] has the same test system. Nature of the assay: Hydrolytic activity of gingival crevicular fluid specimens, visually evaluated (Experiment 5). The arrangement: key: -: orange; +: dark orange; ++: brown; +++: dark brown. It counts as biochemical. The protocol: as §2, §3
Specimens of gingival crevicular fluid were collected with paper points from five subjects who were considered to be healthy from their clinical state, six subjects with gingivitis and six subjects with periodontitis. Each specimen was dispersed in Ringer's solution (1.5 ml), and the relative amount of spirochete to total bacteria: [formula] was determined with a phase contrast microscope. Further, the Ringer's solution (0.3 ml) was tested for hydrolytic activity using the substrate solution prepared in the same manner as described in Experiment 1. As substrates, there were used compounds of the formula [1], i.e., N-benzoylvalyl-glycyl-arginine-β-naphthylamide (BzVGR) and N-carbobenzoxy-valyl-glycyl-arginine-β-naphthylamide (CxVGR) were used.
In table 4, hydrolytic activity was visually evaluated and expressed as follows: […]
According to the same manner as described in Experiment 4, hydrolytic activity was tested by using the compounds of the formula [2], i.e., lysyl-proline-β-naphthylamide (KP) and N-carbobenzoxy-prolyl-alanyl-glycylproline-β-naphthylamide (CxPAGP) as the substrates.

Where a SMILES comes first, the peptide text is derived from it. The star is where a group is joined. βNA = c1ccc2cc(N*)ccc2c1

`N=C(N)NCCC[C@H](NC(=O)CN)C(=O)Nc1ccc2ccccc2c1` [GR, glycyl-arginine-β-naphthylamide] (H-Gly-Arg-βNA): the “hydrolytic activity (release amount)” value in the assay with Actinomyces israelli [1] is recorded as “- (release amount<5 nmol/ml)”; in the assay on Treponema denticola [2], “+ (10 ≤release amount<20 nmol/ml)”; in the assay on B. gingivalis [3], “++ (20 ≤release amount<40 nmol/ml)”; with Fusobacterium nucleatum [4], “- (release amount<5 nmol/ml)”; in [5] it was “- (release amount<5 nmol/ml)”. The “hydrolytic activity (average amount of released β-naphthylamine)” value was “+ (10 ≤release amount<20 nmol/ml)” in the assay on Treponema denticola [6]; “- (release amount<5 nmol/ml)” with Fusobacterium nucleatum [7]; “± (5 ≤release amount<10 nmol/ml)” with Capnocytophaga sp.; “++ (20 ≤release amount<40 nmol/ml)” in the assay on Bacteroides gingivalis; “- (release amount<5 nmol/ml)” in [8].

Regarding `NCCCC[C@H](N)C(=O)N1CCC[C@H]1C(=O)Nc1ccc2ccccc2c1` [KP, lysyl-proline-β-naphthylamide] (H-Lys-Pro-βNA), the “hydrolytic activity (average amount of released β-naphthylamine)” value in the assay with Actinomyces israelli [9] was “- (release amount<5 nmol/ml)”; with B. melaninogenicus, “++ (20 ≤release amount<40 nmol/ml)”; with Treponema denticola [10], “++ (20 ≤release amount<40 nmol/ml)”; in the assay on B. gingivalis [11], “+++ (release amount≥40 nmol/ml)”; in the assay on B. intermedius, “++ (20 ≤release amount<40 nmol/ml)”; in the assay on Fusobacterium nucleatum [12], “- (release amount<5 nmol/ml)”. The “hydrolytic activity (average amount of released β-naphthylamine)” value was “++ (20 ≤release amount<40 nmol/ml)” in the assay with B. corporis, “++ (20 ≤release amount<40 nmol/ml)” with B. denticola and “- (release amount<5 nmol/ml)” in assay [13]. The values for the hydrolytic activity in assay [14] (Adult Periodontitis subjects), in assay [14] (Healthy subjects) and in assay [14] (Localized juvenile periodontitis subjects) were 36.2 ± 9.9 nmol/mL, 16.1 ± 10.3 nmol/mL and 33.4 ± 10.0 nmol/mL, respectively. Also, the “hydrolytic activity, visually evaluated” value is “+” in [15] (Gingivitis subject 1 (spirochete 7.3 %)); “+” in assay [15] (Gingivitis subject 2 (spirochete 16.7 %)); “++” in [15] (Gingivitis subject 3 (spirochete 20.5 %)); “-” in assay [15] (Gingivitis subject 4 (spirochete 6.8 %)); “-” in assay [15] (Gingivitis subject 5 (spirochete 7.3 %)); “+” in [15] (Gingivitis subject 6 (spirochete 14.4 %)). In addition, the “hydrolytic activity, visually evaluated” value in [15] (Healthy subject 1 (spirochete 0.1 %)) was “-”; in [15] (Healthy subject 2 (spirochete 2.5 %)), “+”; in assay [15] (Healthy subject 3 (spirochete 1.1 %)), “-”; in [15] (Healthy subject 4 (spirochete 0.6 %)), “-”; in assay [15] (Healthy subject 5 (spirochete 1.3 %)) it was “-”; in [15] (Periodontitis subject 1 (spirochete 45.2 %)) it was “+++”. The “hydrolytic activity, visually evaluated” value in [15] (Periodontitis subject 2 (spirochete 30.3 %)), in assay [15] (Periodontitis subject 3 (spirochete 34.6 %)), in assay [15] (Periodontitis subject 4 (spirochete 21.2 %)), in assay [15] (Periodontitis subject 5 (spirochete 40.3 %)) and in assay [15] (Periodontitis subject 6 (spirochete 35.1 %)) was “+++” each time.
